# From patent US3998963A, “Tertiary butyl substituted carbamoyl oxime pesticides” (priority 1975, dated 1976)
# Where two headings read alike, the source gives them in different places.
# Tests used:
# Assay type in all cases: in vivo
# [1] = test system: Mexican bean beetle (Epilachna varivestis, Muls.); assay: Mexican Bean Beetle Leaf Spray Test; conditions: 72 h, 3 days, read-out: Insect LD50, Beetle
# Experimental: (§1) Suspensions of the test compouns were prepared by dissolving one gram of compound in 50 milliliters of acetone in which had been dissolved 0.1 gram (10 percent of the weight of compound) of an alkylphenoxy polyethoxyethanol surfactant, as an emulsifying or dispersing agent. The resulting solution was mixed into 150 milliliters of water to give roughly 200 milliliters of a suspension containing the compound in finely divided form. The thus-prepared stock suspension contained 0.5 percent by weight of compound. The test concentrations in parts per million by weight employed in the tests described hereinbelow were obtained by appropriate dilutions of the stock suspension with water. The test procedures were as follows:
# Mexican Bean Beetle Leaf Spray Test
# Fourth instar lavae of the Mexican bean beetle (Epilachna varivestis, Muls.), reared on Tendergreen bean plants at a temperature of 80°±5° F. and 50±5 per cent relative humidity, were the test insects.
# The test compounds were formulated by diluting the stock suspension with water to give a suspension containing 500 parts of test compound per million parts of final formulation. Potted Tendergreen bean plants of standard height and age were placed on a revolving turntable and sprayed with 100-110 milliliters of test comound formulation by use of a DeVilbiss spray gun set at 10 psig air pressure. This application, which lasted 25 seconds, was sufficient to wet plants to run-off. As a control, 100-110 milliliters of a water-acetone-emulsifier solution containing no test compound were also sprayed on infested plants. When dry, the paired leaves were separated and each was placed in a 9 centimeter Petri dish lined with moistened filter paper. Five randomly selected larvae were introduced into each dish, and the dishes were closed. The closed dishes were labeled and held at a temperature of 80°±5° F, for 3 days. Although the larvae could easily consume the leaf within 24 to 48 hours, no more food was added. Larvae which were unable to move the length of the body, even upon stimulation, were considered dead.
# [2] = test system: house flies (Musca domestica, L.); assay: Fly Bait Test
# Experimental: as §1
# Four to six day old adult house flies (Musca domestica, L.), reared according to the specifications of the Chemical Specialities Manufacturing Association (Blue Book, McNair-Dorland Co., N.Y. 1954; pages 243-244, 261) under controlled conditions of 80°±5° F. and 50±5 per cent relative humidity, were the test insects. The flies were immobilized by anesthetizing with carbon dioxide and twenty five immobilized individuals, males and females, were transferred to a cage consisting of a standard food strainer about five inches in diameter which was inverted over a wrapping-paper covered surface. The test compounds were formulated by diluting the stock suspension with a 10 per cent (by weight) sugar solution to give a suspension containing 500 parts of test compound per million parts of final formulation, by weight. Ten milliliters of the test formulation were added to a souffle cup containing a 1-inch square of an absorbent cotton pad. This bait cup was introduced and centered on the blotting paper under the food strainer prior to admitting the anesthetized flies. The caged flies were allowed to feed on the bait for 24 hours, at a temperature of 80°±5° F. and the relative humidity of 50±5 per cent.
# (§2) In Table 1 are presented insect and rat toxicity data (bait tests) on a comparative basis of the compounds described above. […] Rat toxicity is also more meaningfully compared on the basis of molar weight LD50 values. The relative efficacy of the parent compounds as compared to the previously known derivatives and as compared to the new compounds of this invention is also shown in Table 1. The ratio of efficacy as contact poisons (immersion/bait) of the compounds tested against Armyworm and House Fly is presented in Table 2 along with the results of the phytotoxicity tests of the compounds on bean, corn, tomato and cotton.
# [3] = test system: houseflies (Musca domestica, L.); assay: Fly Immersion Test
# Experimental: as §1
# The test organisms used were 4 to 6 day old adult houseflies (Musca domestica, L.) reared under controlled conditions of 80° + 5° F. and 50 + 5 percent relative humidity. The adult flies were immobilized by anesthetizing with CO2. Twenty-five immobilized individuals (males and females) were then used for the test of each test compound.
# Twenty-five randomly selected adult flies were thoroughly wetted in a formulated mixture of the test chemical (50 ml) by pouring the insects and formulation from one beaker to another six times. Excess liquid was removed by transferring the insects into a standard food strainer (5-inch diameter) which was then blotted with a paper towel. The treated flies were transferred to clean food strainer which was inverted over a paper cup containing a wad of cotton saturated with a 10 percent aqueous sugar solution provided as food for surviving insects. An equivalent amount of a water solution containing acetone and emulsifier in the same concentrations as the insecticidal mixture but without the candidate insecticide was applied to other flies in the same manner. These insects serve as controls for the experiment.
# The surviving caged flies were allowed to feed on the sugar water for a period of 24 hours. Room temperature and humidity are 80° + 5° F. and 50 + 5 percent relative humidity, respectively. At the end of the holding period flies which show no sign of movement upon stimulation were considered dead.
# as §2
# cotton = assay: Phytotoxicity Test, cotton
# Experimental: as §1
# (§3) Experiments were also conducted to determine the phytotoxicity of representative compositions with respect to healthy fresh plants. Solutions of the compounds were prepared as described above to provide a concentration of 2500 parts per million of the test compound. The test plants were sprayed in accordance with the procedure described above for the Mite Foliage Spray Test so as to deliver approximately 100 milliliters of test solution to the leaves of each plant tested. The sprayed plants and controls were set aside for approximately one hour to allow the foliage to dry and were then placed in the greenhouse. After ten days the plants were visually inspected to determine the extent of foliage injury. A rating of 1 indicates no perceptible injury; 5 indicates the plant was dead and ratings of 2, 3 and 4 indicate intermediate degrees of injury based upon the number and extent to which leaves were injured.
# [4] = Mammalian Toxicity (peroral, rat); conditions: rat, in vivo, po, peroral
# Experimental: (§4) These compositions were also evaluated to determine their peroral toxicity to mammals by conventional methods. The animal selected for this experiment was the rat. The test results obtained are expressed in terms of the number of milligrams of composition per kilogram of weight of the animal required to achieve a mortality rate of 50 percent (LD50).
# as §2
# rat = assay: Mammalian Toxicity (peroral, rat)
# Experimental: as §4, §2
# insects = assay: Insect toxicity, overall; conditions: text statement
# Experimental: (§5) Each of the new compounds were evaluated in comparison with known similar prior art compounds to determine their comparative pesticidal activity against mites and certain insects, including an aphid, caterpillar, a beetle and a fly. The new compounds were also tested for phytotoxicity on important economic crops including bean, corn, tomato and cotton. The new compounds were further evaluated for mammalian toxicity.
# as §1, §2
# [5] = test system: bean, corn, tomato or cotton; assay: Phytotoxicity Test, crop plants overall; conditions: text statement
# Experimental: as §5, §1, §3
structure (smiles),measurement,setting,value
"CSC(C)=NOC(=O)N(C)Sc1ccc(C(C)(C)C)cc1 [Compound 8, O-[N-Methyl-N-[4-(t-butylphenyl)sulfenyl]carbamoyl] S-Methyl Acetothiolhydroximate]",LC50,[1],20 µg/mL
same,LC50,"[2]; Musca domestica, 24 hours, read-out: Insect LD50, Housefly",17 µg/mL
same,"(b) relative efficacy of derivative vs parent compound, Housefly",[2]; formula of footnote b is drawing 8,0.4
same,LC50,"[3]; Musca domestica, immersion (contact), 24 hours, read-out: Imm LD50, Housefly",14 µg/mL
same,"contact vs stomach poison, house fly (in words)",[3]; immersion vs bait,outstanding contact poison
same,"(Imm/Bait), Housefly",[3]; ratio immersion/bait LD50,0.8
same,"Phytotoxicity, Cotton","cotton; 2500 parts per million, ten days",Bu 2
same,phytotoxicity to cotton (in words),cotton; text statement,moderate leaf burn injury
same,LD50,"[4]; Table I, read-out: Rat LD50",196 mg/kg
same,LD50,"[4]; Table II, read-out: Rat Tox. LD50",196 mg/kg
same,LD50,[4]; read-out: rat LD50 (molar),600 µmol/kg
same,"(b) relative value of derivative vs parent compound, Rat LD50","rat; peroral, formula of footnote b is drawing 8",0.5
same,mammalian toxicity (in words),rat; text statement,extremely low mammalian toxicity
same,safety relative to the parent (molar),"rat; vs parent compound, molar basis",about twice as safe as the parent
same,"less toxic to mammals than its parent compound, weight basis","rat; vs parent compound, weight basis",at least 4 times
same,insect toxicity / pesticidal activity (in words),insects,dramatic improvement in toxicity against all insects tested with the exception of house fly
same,insect toxicity / pesticidal activity (in words),insects; listed as O-[ N-methyl-N-[4-(t-butylphenyl)sulfenyl] carbamoyl] S-methyl acetothiolhydroxi,"exceptionally high insecticidal activity against aphid, armyworm and bean beetle"
same,phytotoxicity (in words),[5],very low phytotoxicity
